Source: paper PMC6591251, “Discovery of potent necroptosis inhibitors targeting RIPK1 kinase activity for the treatment of inflammatory disorder and cancer metastasis” (Cell Death & Disease, 2019)

Assays:
[1] = test system: RFP-LL/2 cells through CD31+ endothelial cell monolayer; assay: Transendothelial migration assay; type: cell-based, mouse; settings: 2 h pretreatment, 20 h
Description: Studies have shown that RIPK1 kinase activity is involved in the promotion of tumor metastasis through death receptor 6-dependent necroptosis of endothelial cells[22] or VEGF-dependent activation of vascular permeability. We thus evaluated the therapeutic effect of PK68 on lung metastasis of mouse melanoma B16-F10 cells in vivo. […] After 2 weeks, the metastasis of B16-F10 cells was measured by histological analysis and assessed as the number of metastasis nodules in the lung. […] Two weeks after intravenous injection of RFP-LL/2 cells, RFP^+ LL/2 cells were isolated from the tumor tissues by flow cytometer sorting and no signal of phosphorylated RIPK1 was detected in these tumors cells (Supplementary Fig. 22). Six hours after intravenous injection of RFP-LL/2 cells into C57BL/6 mice, the RFP-LL/2 cells have extravasated through blood vessels into the lung (Supplementary Fig. 23). […] Further, we evaluated the effect of PK68 on the tumor cell transmigration across the cultured endothelium. […]
Primary CD31^+ endothelial cells isolated from lungs by using CD31 beads (Miltenyi Biotec) were used for the transendothelial migration assay as previously described. […] Then fluorescence picture of transmigrated RFP-LL/2 cells were taken at ×40 magnification under the microscope (Nikon), and the intensity of fluorescence was analyzed by Image J software. […]

AKT3 = target: T1, AKT3 (Homo sapiens, UniProt Q9Y243); assay: RBC kinase panel; type: biochemical; settings: ATP 10 μM, Data1, Data2
T1 construct: purchased Reaction Biology Corporation
Description: (§1) PK68 was tested at 1 μM in duplicate against a panel of 369 human kinases at Reaction Biology Corporation. Results are viewed in the human kinome phylogenetic tree.
(§2) ^a Compound PK68 was tested at 1 μM in duplicate against 369 kinases using the RBC kinase panel service of Reaction Biology Corporation. All the ATP concentrations used were 10 μM. […] Full protocol details are available at http://www.reactionbiology.com.

LYN = target: T2, LYN (Homo sapiens, UniProt P07948); assay: RBC kinase panel; type: biochemical; settings: ATP 10 μM, Data1, Data2
T2 construct: purchased Reaction Biology Corporation
Description: as §1, §2

STK33 = target: T3, STK33 (Homo sapiens, UniProt Q9BYT3); assay: RBC kinase panel; type: biochemical; settings: ATP 10 μM, Data1, Data2
T3 construct: purchased Reaction Biology Corporation
Description: as §1, §2

LATS1 = target: T4, LATS1 (Homo sapiens, UniProt O95835); assay: RBC kinase panel; type: biochemical; settings: ATP 10 μM, Data1, Data2
T4 construct: purchased Reaction Biology Corporation
Description: as §1, §2

JNK3 = target: T5, JNK3 (Homo sapiens, UniProt P53779); assay: RBC kinase panel; type: biochemical; settings: ATP 10 μM, Data1, Data2
T5 construct: purchased Reaction Biology Corporation
Description: as §1, §2

NEK6 = target: T6, NEK6 (Homo sapiens, UniProt Q9HC98); assay: RBC kinase panel; type: biochemical; settings: ATP 10 μM, Data1, Data2
T6 construct: purchased Reaction Biology Corporation
Description: as §1, §2

CAMK2d = target: T7, CAMK2d (Homo sapiens, UniProt Q13557); assay: RBC kinase panel; type: biochemical; settings: ATP 10 μM, Data1, Data2
T7 construct: purchased Reaction Biology Corporation
Description: as §1, §2

TAOK2/TAO1 = target: T8, TAOK2/TAO1 (Homo sapiens, UniProt Q9UL54); assay: RBC kinase panel; type: biochemical; settings: ATP 10 μM, Data1, Data2
T8 construct: purchased Reaction Biology Corporation
Description: as §1, §2

MEK3 = target: T9, MEK3 (Homo sapiens, UniProt P46734); assay: RBC kinase panel; type: biochemical; settings: ATP 10 μM, Data1, Data2
T9 construct: purchased Reaction Biology Corporation
Description: as §1, §2

LYN B = target: T10, LYN B (Homo sapiens, UniProt P07948); assay: RBC kinase panel; type: biochemical; settings: ATP 10 μM, Data1, Data2
T10 construct: purchased Reaction Biology Corporation
Description: as §1, §2

SRPK2 = target: T11, SRPK2 (Homo sapiens, UniProt P78362); assay: RBC kinase panel; type: biochemical; settings: ATP 10 μM, Data1, Data2
T11 construct: purchased Reaction Biology Corporation
Description: as §1, §2

ROCK2 = target: T12, ROCK2 (Homo sapiens, UniProt O75116); assay: RBC kinase panel; type: biochemical; settings: ATP 10 μM, Data1, Data2
T12 construct: purchased Reaction Biology Corporation
Description: as §1, §2

CDK2/cyclin E = target: T13, CDK2/cyclin E (Homo sapiens, UniProt P24941); assay: RBC kinase panel; type: biochemical; settings: ATP 10 μM, Data1, Data2
T13 construct: purchased Reaction Biology Corporation
Description: as §1, §2

CK1a1L = target: T14, CK1a1L (Homo sapiens, UniProt Q8N752); assay: RBC kinase panel; type: biochemical; settings: ATP 10 μM, Data1, Data2
T14 construct: purchased Reaction Biology Corporation
Description: as §1, §2

CAMK2b = target: T15, CAMK2b (Homo sapiens, UniProt Q13554); assay: RBC kinase panel; type: biochemical; settings: ATP 10 μM, Data1, Data2
T15 construct: purchased Reaction Biology Corporation
Description: as §1, §2

RIPK5 = target: T16, RIPK5 (Homo sapiens, UniProt Q6XUX3); assay: RBC kinase panel; type: biochemical; settings: ATP 10 μM, Data1, Data2
T16 construct: purchased Reaction Biology Corporation
Description: as §1, §2

MEKK1 = target: T17, MEKK1 (Homo sapiens, UniProt Q13233); assay: RBC kinase panel; type: biochemical; settings: ATP 10 μM, Data1, Data2
T17 construct: purchased Reaction Biology Corporation
Description: as §1, §2

P38b/MAPK11 = target: T18, P38b/MAPK11 (Homo sapiens, UniProt Q15759); assay: RBC kinase panel; type: biochemical; settings: ATP 10 μM, Data1, Data2
T18 construct: purchased Reaction Biology Corporation
Description: as §1, §2

PIM3 = target: T19, PIM3 (Homo sapiens, UniProt Q86V86); assay: RBC kinase panel; type: biochemical; settings: ATP 10 μM, Data1, Data2
T19 construct: purchased Reaction Biology Corporation
Description: as §1, §2

MST1/STK4 = target: T20, MST1/STK4 (Homo sapiens, UniProt Q13043); assay: RBC kinase panel; type: biochemical; settings: ATP 10 μM, Data1, Data2
T20 construct: purchased Reaction Biology Corporation
Description: as §1, §2

P38a/MAPK14 = target: T21, P38a/MAPK14 (Homo sapiens, UniProt Q16539); assay: RBC kinase panel; type: biochemical; settings: ATP 10 μM, Data1, Data2
T21 construct: purchased Reaction Biology Corporation
Description: as §1, §2

PKCmu/PRKD1 = target: T22, PKCmu/PRKD1 (Homo sapiens, UniProt Q15139); assay: RBC kinase panel; type: biochemical; settings: ATP 10 μM, Data1, Data2
T22 construct: purchased Reaction Biology Corporation
Description: as §1, §2

T14 sequence (Q8N752 whole entry): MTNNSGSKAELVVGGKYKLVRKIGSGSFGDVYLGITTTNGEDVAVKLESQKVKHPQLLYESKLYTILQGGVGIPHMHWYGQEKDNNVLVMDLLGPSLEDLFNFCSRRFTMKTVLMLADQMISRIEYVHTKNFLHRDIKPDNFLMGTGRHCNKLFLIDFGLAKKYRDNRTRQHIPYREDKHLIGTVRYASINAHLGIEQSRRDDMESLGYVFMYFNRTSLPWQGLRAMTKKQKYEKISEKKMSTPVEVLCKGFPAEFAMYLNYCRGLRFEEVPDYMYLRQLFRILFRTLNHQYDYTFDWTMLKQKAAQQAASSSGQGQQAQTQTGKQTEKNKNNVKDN
T10 sequence (P07948 1-491 isoform P07948-2): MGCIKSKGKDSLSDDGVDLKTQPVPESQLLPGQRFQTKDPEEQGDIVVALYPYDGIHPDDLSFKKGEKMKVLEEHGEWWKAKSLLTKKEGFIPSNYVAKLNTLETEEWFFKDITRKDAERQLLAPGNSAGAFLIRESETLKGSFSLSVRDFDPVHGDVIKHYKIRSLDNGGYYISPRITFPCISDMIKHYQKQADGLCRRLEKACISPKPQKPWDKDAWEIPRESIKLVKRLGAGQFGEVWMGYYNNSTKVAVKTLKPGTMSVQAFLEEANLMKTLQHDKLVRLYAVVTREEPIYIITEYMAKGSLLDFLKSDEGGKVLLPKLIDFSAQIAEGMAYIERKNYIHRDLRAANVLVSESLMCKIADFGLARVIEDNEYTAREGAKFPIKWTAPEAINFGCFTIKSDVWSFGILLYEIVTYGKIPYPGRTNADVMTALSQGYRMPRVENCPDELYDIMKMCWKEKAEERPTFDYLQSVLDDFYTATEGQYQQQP
T16 sequence (Q6XUX3 whole entry): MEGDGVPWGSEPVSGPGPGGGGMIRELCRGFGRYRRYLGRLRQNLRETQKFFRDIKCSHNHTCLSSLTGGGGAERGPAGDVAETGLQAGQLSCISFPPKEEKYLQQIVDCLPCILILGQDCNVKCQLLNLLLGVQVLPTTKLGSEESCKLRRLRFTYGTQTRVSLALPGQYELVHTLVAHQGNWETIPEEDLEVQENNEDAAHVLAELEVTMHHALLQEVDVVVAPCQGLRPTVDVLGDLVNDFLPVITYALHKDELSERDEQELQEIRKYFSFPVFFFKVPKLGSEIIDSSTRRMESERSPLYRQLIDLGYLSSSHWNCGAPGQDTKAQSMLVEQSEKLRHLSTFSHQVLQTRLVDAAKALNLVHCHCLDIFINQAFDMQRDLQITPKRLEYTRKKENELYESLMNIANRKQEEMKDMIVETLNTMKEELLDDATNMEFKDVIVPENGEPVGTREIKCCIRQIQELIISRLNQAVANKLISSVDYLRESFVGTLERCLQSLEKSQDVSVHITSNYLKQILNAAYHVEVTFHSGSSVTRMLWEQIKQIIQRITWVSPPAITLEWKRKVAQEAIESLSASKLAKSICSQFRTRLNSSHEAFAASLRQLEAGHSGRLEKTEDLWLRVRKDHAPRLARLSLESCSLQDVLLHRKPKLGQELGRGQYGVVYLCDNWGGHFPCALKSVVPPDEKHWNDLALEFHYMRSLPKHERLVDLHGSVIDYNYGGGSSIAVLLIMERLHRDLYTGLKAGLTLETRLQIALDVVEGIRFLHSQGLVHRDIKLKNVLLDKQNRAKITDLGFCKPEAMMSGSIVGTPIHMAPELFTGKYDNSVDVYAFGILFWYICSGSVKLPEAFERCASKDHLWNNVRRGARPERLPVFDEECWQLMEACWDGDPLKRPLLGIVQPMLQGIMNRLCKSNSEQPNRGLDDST
T8 sequence (Q9UL54 whole entry): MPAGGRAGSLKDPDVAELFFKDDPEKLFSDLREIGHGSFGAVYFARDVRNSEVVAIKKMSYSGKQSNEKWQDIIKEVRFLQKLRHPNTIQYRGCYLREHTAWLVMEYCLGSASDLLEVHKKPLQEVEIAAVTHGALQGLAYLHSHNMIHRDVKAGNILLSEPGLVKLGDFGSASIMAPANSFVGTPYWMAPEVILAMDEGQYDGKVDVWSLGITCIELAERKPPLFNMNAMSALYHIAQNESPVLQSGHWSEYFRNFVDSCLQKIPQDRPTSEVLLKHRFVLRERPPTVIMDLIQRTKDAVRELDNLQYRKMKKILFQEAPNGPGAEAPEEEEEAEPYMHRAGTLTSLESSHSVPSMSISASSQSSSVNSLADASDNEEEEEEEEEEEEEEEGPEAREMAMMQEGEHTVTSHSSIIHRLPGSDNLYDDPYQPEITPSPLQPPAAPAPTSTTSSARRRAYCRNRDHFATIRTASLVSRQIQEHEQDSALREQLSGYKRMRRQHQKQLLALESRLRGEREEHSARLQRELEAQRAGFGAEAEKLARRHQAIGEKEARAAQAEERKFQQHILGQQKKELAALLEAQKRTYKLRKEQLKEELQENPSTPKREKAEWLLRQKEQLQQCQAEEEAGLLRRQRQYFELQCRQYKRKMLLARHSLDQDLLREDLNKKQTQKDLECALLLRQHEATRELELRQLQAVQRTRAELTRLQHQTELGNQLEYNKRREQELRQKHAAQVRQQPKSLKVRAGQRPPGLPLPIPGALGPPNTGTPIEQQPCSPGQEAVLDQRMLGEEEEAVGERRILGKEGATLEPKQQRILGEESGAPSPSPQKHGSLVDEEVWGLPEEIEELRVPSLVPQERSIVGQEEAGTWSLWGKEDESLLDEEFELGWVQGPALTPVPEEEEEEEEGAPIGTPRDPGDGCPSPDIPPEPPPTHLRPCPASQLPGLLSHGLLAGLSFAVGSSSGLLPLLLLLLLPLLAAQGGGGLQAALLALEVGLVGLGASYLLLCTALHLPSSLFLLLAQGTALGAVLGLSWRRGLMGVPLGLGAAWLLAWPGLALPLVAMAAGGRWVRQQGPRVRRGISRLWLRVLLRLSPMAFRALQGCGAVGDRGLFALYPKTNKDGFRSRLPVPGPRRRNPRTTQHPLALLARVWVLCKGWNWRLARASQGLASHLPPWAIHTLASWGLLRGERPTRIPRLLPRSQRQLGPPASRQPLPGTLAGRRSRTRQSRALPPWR
T21 sequence (Q16539 whole entry): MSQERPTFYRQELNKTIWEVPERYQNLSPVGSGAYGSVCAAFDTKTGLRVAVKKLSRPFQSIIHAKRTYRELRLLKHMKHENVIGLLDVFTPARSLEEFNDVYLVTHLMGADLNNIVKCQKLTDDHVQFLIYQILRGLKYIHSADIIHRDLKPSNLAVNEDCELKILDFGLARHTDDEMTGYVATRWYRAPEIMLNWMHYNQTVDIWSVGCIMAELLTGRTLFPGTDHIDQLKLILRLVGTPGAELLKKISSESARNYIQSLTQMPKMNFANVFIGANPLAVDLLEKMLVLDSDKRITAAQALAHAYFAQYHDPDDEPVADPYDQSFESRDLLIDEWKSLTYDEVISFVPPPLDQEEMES
T2 sequence (P07948 whole entry): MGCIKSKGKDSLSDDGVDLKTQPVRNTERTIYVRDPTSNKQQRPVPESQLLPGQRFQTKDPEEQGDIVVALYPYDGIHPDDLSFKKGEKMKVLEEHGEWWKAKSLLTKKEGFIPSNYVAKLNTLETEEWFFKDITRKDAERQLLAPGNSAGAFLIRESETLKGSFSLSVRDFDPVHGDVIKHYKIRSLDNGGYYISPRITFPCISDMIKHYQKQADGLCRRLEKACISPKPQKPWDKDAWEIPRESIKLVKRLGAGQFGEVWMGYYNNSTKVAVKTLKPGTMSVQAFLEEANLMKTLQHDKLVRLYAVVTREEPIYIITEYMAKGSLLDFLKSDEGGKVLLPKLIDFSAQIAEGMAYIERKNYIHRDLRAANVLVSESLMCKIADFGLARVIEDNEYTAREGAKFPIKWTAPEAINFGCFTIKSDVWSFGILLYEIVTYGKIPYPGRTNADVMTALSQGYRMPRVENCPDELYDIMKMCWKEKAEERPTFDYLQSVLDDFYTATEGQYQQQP
T11 sequence (P78362 whole entry): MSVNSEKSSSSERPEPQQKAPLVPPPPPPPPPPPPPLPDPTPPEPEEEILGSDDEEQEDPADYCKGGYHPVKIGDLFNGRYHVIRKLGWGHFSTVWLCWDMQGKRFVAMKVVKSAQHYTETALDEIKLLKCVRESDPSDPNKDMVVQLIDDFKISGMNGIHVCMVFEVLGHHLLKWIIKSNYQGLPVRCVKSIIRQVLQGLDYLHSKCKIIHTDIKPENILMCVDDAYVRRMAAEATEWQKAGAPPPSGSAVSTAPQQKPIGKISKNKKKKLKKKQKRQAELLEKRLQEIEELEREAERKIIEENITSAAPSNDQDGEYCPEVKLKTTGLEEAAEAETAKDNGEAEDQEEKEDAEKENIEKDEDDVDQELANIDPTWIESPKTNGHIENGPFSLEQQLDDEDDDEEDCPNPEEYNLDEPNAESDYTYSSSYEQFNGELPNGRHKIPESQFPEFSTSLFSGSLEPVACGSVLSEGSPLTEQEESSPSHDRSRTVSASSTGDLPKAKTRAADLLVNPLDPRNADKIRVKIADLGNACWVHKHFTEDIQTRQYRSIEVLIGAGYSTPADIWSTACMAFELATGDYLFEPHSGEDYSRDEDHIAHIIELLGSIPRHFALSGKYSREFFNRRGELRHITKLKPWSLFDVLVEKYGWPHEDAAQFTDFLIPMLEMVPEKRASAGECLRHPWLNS
T18 sequence (Q15759 whole entry): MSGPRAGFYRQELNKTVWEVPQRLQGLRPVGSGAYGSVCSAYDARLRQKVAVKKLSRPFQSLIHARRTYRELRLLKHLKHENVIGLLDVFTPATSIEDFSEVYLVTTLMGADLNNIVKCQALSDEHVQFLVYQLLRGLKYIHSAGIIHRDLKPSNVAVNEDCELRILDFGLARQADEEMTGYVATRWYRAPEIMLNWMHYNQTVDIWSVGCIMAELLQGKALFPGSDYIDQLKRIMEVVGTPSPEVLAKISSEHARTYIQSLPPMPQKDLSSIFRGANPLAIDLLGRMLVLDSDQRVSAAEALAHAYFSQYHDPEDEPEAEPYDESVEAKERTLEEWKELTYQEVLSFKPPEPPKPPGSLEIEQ

CC(=O)Nc1nc2ccc(-c3cnc(C)c(NC(=O)OC4CCCCC4)c3)cc2s1 [PK68, cyclohexyl (5-(2-acetamidobenzo[d]thiazol-6-yl)-2-methylpyridin-3-yl)carbamate]
transmigration of RFP-LL/2 cells through the endothelial cell monolayer [1]: attenuated | Activity% (AKT3; 1 μM): 98.71% | activity at 1 µM (AKT3): 100% | Activity% (LYN; 1 μM): 92.90% | activity at 1 µM (LYN): 95.3% | Activity% (STK33; 1 μM): 91.58% | activity at 1 µM (STK33): 91.6% | Activity% (LATS1; 1 μM): 101.83% | activity at 1 µM (LATS1): 103% | Activity% (JNK3; 1 μM): 99.15% | activity at 1 µM (JNK3): 101% | Activity% (NEK6; 1 μM): 93.63% | activity at 1 µM (NEK6): 98.4% | Activity% (CAMK2d; 1 μM): 98.13% | activity at 1 µM (CAMK2d): 98.9% | Activity% (TAOK2/TAO1; 1 μM): 81.88% | activity at 1 µM (TAOK2/TAO1): 82.6% | Activity% (MEK3; 1 μM): 99.61% | activity at 1 µM (MEK3): 99.7% | Activity% (LYN B; 1 μM): 97.70% | activity at 1 µM (LYN B): 98% | Activity% (SRPK2; 1 μM): 100.99% | activity at 1 µM (SRPK2): 101% | Activity% (ROCK2; 1 μM): 95.49% | activity at 1 µM (ROCK2): 95.5% | Activity% (CDK2/cyclin E; 1 μM): 91.99% | activity at 1 µM (CDK2/cyclin E): 93.5% | Activity% (CK1a1L; 1 μM): 103.24% | activity at 1 µM (CK1a1L): 106% | Activity% (CAMK2b; 1 μM): 99.42% | activity at 1 µM (CAMK2b): 102% | Activity% (RIPK5; 1 μM): 102.45% | activity at 1 µM (RIPK5): 103% | Activity% (MEKK1; 1 μM): 92.88% | activity at 1 µM (MEKK1): 95.3% | Activity% (P38b/MAPK11; 1 μM): 102.60% | activity at 1 µM (P38b/MAPK11): 103% | Activity% (PIM3; 1 μM): 101.62% | activity at 1 µM (PIM3): 104% | Activity% (MST1/STK4; 1 μM): 100.43% | activity at 1 µM (MST1/STK4): 100% | Activity% (P38a/MAPK14; 1 μM): 102.59% | activity at 1 µM (P38a/MAPK14): 106% | Activity% (PKCmu/PRKD1; 1 μM): 95.71% | activity at 1 µM (PKCmu/PRKD1): 96.5%
